Experimental data from patent US20240335569A1, “FIBROBLAST ACTIVATION PROTEIN INHIBITORS AND USE THEREOF” (3 B PHARMACEUTICALS GMBH, priority 2021, published 2024).
Where two headings read alike, the source gives them in different places.

What was measured:
AsPC-1 = test: Stability in the presence of human cell lines (AsPC-1); assay type: in vitro ADME; conditions: AsPC-1, Pancreas; 24 hours
Experimental: (§1) Residual activity was calculated as follows: […]

SCOV-3 = conditions: SCOV-3, Ovarian; 24 hours
Experimental: Cells were cultured in McCoys's 5A modified medium (Biochrom, #F1015) including 10% fetal bovine serum (FBS), 2 mM L-glutamine, 100 U/ml penicillin and 100 μg/mL streptomycin (growth medium). […] 1 mL of the cell suspension were seeded in 24-well plates and incubated overnight at 37° C. and 5% CO2. The next day, cells were washed twice and growth medium was exchanged against DMEM without phenol red (Biochrom, #F0475) including 2 mM L-glutamine. Test compound was diluted in DMEM without phenol red (Biochrom, #F0475) including 2 mM L-glutamine. 400 μL of a 10 μM solution of the test compound was incubated for 24 hours at 37° C. and 5% CO2 in the presence of cells as well as in control wells (without cells) of the same 24-well plate.
25 μL of a 30 μM substrate solution, diluted in assay buffer, was added. All solutions were equilibrated at 37° C. prior to use. […] RFU/sec was calculated by SoftMax Pro software and plotted against test compound concentration. Four parameter logistic (4PL) curve fitting and IC50/pIC50 calculations were performed using GraphPad Prism 9.1 software. Residual activity was calculated as follows: […]
The stability of exemplary compounds was further assessed in the presence of a variety of human cell lines from different tissue origins. […] Residual activity was calculated as follows: […]

786-O = test: Stability in the presence of human cell lines (786-O); assay type: in vitro ADME; conditions: Kidney, 24 hours
Experimental: as §1

C4-2 = test: Stability in the presence of human cell lines (C4-2); assay type: in vitro ADME; conditions: C4-2, Prostate; 24 hours
Experimental: as §1

[1] = target: HEK-FAP cells (HEK293 cells engineered to express the human FAP) (Homo sapiens (Human), UniProt Q12884); test: LigandTracer assay with 111In-labeled compounds; assay type: binding; conditions: 111In-labeled compound
Experimental: HEK293 cells (human embryonic kidney cells) were engineered to express the human FAP. […] Cell concentrations were adjusted to 3×10^5 mL^−1, and 3.000 μL of the suspension was dispensed into a poly-lysine-coated, clear cell dish (10 cm). Approximately 24 hours after re-seeding, the medium was replaced by assay medium (Ham's medium with 20 mM HEPES) containing 1% FCS. The dish was placed in the LigandTracer® device and a baseline measurement was obtained using the LigandTracer® Control software (version 2.4). […] To determine the dissociation rate (kd) the cells were washed and subsequently incubated with fresh assay medium for several hours.

HT-1376 = test: Stability in the presence of human cell lines (HT-1376); assay type: in vitro ADME; conditions: HT-1376, Bladder; 24 hours
Experimental: as §1

U2-OS = test: Stability in the presence of human cell lines (U2-OS); assay type: in vitro ADME; conditions: Sarcoma (Bone), 24 hours
Experimental: as §1

A549 = test: Stability in the presence of human cell lines (A549); assay type: in vitro ADME; conditions: A549, Lung; 24 hours
Experimental: as §1

HT-29 cells = test: Stability in the presence of tumor cells (HT-29), FAP IC50 of supernatants; assay type: in vitro ADME, human
Experimental: The stability of exemplary compounds was further assessed in the presence of a variety of human cell lines from different tissue origins. […] Compounds were diluted in DMEM without phenol red (Biochrom, #F0475) including 2 mM L-glutamine. 400 μL of a 10 μM solution of the test compound was incubated for 24 hours at 37° C. and 5% CO2 in the presence of cells as well as in control wells (without cells) of the same 24-well plate. IC50/pIC50 determination of the supernatants was performed as described above.

K-562 = test: Stability in the presence of human cell lines (K-562); assay type: in vitro ADME; conditions: K-562, Blood; 24 hours
Experimental: as §1

MDA-MB-436 = test: Stability in the presence of human cell lines (MDA-MB-436); assay type: in vitro ADME; conditions: MDA-MB-436, Breast; 24 hours
Experimental: as §1

Human recombinant FAP [2] = target: T1, Human recombinant FAP (Homo sapiens (Human), UniProt Q12884); test: Surface plasmon resonance assay (Biacore T200, SCK); assay type: binding; conditions: for HL [min] (Biacore): SPR dissociation half-life
Outline: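 Anti-FAP antibody amine-coupled to CM5 chip (7000 RU), human recombinant FAP captured at 20 μg/mL; compounds run in single-cycle kinetics at 25° C in HBST with 0.1% DMSO, top concentration 500 nM. Reference-cell and buffer-run drift subtraction; kon, koff, KD, t1/2 from 1:1 Langmuir fit, reported as pKD.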
Target sequence in this assay (Q12884 whole entry): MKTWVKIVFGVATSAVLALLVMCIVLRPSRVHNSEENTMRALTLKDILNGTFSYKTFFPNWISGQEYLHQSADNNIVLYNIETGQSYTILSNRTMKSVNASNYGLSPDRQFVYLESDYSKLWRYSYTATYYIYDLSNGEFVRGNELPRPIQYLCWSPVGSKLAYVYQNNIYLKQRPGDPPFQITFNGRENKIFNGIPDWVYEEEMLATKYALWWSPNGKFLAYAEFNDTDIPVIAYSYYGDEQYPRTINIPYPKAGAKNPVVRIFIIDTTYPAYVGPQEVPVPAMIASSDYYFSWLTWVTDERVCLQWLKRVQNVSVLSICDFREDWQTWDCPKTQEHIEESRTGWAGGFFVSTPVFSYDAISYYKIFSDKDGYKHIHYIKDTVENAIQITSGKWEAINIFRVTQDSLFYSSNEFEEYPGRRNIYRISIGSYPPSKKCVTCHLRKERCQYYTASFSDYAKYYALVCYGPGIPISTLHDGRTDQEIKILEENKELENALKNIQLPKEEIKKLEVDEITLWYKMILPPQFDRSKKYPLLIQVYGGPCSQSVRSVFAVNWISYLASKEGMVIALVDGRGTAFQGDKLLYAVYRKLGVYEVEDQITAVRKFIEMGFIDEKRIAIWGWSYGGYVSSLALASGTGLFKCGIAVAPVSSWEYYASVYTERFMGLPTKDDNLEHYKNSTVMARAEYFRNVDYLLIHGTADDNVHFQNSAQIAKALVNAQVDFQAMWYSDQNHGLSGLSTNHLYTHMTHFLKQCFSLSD

U87MG = test: Stability in the presence of human cell lines (U87MG); assay type: in vitro ADME; conditions: Brain, 24 hours
Experimental: as §1

WM-266-4 = test: Stability in the presence of human cell lines (WM-266-4); assay type: in vitro ADME; conditions: WM-266-4, Skin; 24 hours
Experimental: as §1

HEC-265 = test: Stability in the presence of human cell lines (HEC-265); assay type: in vitro ADME; conditions: HEC-265, Endometrium; 24 hours
Experimental: as §1

WI-38 = test: Stability in the presence of human cell lines (WI-38); assay type: in vitro ADME; conditions: WI-38, Fibroblast (Lung); 24 hours
Experimental: as §1

[3] = target: FAP-expressing human WI-38 fibroblasts (Homo sapiens (Human), UniProt Q12884); test: FACS binding assay (competitive, Cy5-labeled 3BP-2935); conditions: FAP-expressing WI-38 fibroblasts
Sequence of FAP-expressing human WI-38 fibroblasts (Q12884 whole entry): as above
Outline: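 Cells diluted to 100.000 cells per ml in FACS buffer, washed twice and analysed by flow cytometry. Median Cy5 fluorescence was plotted against test compound concentration, and pIC50 was derived by four-parameter logistic fit.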

Human recombinant FAP [4] = target: T1, Human recombinant FAP; test: FAP protease activity assay (human), FRET-based; assay type: biochemical; conditions: recombinant human FAP, FRET protease activity; read-out: pIC50 (Activity) (converted)
Experimental: In order to determine the inhibitory activity a FRET-based FAP protease activity assay was established.
Four parameter logistic (4PL) curve fitting and pIC50 calculations were performed using ActivityBase software (IDBS).
Target sequence in this assay (Q12884 26-760): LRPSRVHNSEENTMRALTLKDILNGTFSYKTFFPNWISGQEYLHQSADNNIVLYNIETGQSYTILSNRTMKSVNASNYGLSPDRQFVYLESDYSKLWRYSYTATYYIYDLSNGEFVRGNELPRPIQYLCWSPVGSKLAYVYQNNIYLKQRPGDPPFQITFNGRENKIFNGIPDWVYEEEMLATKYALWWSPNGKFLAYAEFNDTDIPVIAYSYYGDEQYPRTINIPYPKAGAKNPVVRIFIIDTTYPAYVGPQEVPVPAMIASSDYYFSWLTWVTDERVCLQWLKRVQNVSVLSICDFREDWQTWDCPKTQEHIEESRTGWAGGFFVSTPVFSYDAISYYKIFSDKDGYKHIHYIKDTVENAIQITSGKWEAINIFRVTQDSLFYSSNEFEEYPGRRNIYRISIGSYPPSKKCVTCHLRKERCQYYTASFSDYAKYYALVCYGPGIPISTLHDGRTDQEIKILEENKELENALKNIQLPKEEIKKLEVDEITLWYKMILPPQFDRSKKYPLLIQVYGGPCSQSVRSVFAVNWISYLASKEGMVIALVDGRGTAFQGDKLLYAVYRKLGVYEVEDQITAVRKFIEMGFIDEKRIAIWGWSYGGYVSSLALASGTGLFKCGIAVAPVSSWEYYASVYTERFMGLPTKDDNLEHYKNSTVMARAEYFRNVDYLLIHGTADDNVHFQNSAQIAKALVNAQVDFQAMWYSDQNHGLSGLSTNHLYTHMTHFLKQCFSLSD

**Q.** What does the source list for N#C[C@@H]1CC(F)(F)CN1C(=O)CNC(=O)c1ccnc2ccc(OCCCN3CCN(C(=O)CN4CCN(CC(=O)O)CCN(CC(=O)O)CCN(CC(=O)O)CC4)CC3)cc12 [Compound 3BP-2929, reference compound]?
**A.** Residual Stability (%) (AsPC-1): 35%; Residual Stability (%) (SCOV-3): 4%; Residual Stability (%) (786-O): 85%; Residual Stability (%) (C4-2): 19%; HL (half-life) [1]: 4.6 ± 2.37 h; Residual Stability (%) (HT-1376): 10%; Residual Stability (%) (U2-OS): 30%; Residual Stability (%) (A549): 20%; pIC50 (incubation in cell medium w/o HT-29) (HT-29 cells; 10 μM compound, 24 hours at 37° C. in control wells without cells, supernatant tested on recombinant human FAP): 8.7; pIC50 (incubation in the presence of HT-29 cells) (HT-29 cells; 10 μM compound, 24 hours at 37° C. with HT-29 cells, supernatant tested on recombinant human FAP): 7.9; Residual Stability (%) (HT-29 cells; HT-29, Intestine, 24 hours): 14%; stability in the presence of HT-29 cells (in words) (HT-29 cells; HT-29 cells): unstable; Residual activity after incubation with HT-29 cells for 24 hours (%) (HT-29 cells; HT-29 cells, 24 hours): 16%; Residual Stability (%) (K-562): 70%; Residual Stability (%) (MDA-MB-436): 17%; HL [min] (Biacore) (Human recombinant FAP [2]): 85 min; Residual Stability (%) (U87MG): 45%; Residual Stability (%) (WM-266-4): 70%; Residual Stability (%) (HEC-265): 65%; Residual Stability (%) (WI-38): 26%

**Q.** What does the source list for O=C(O)CN1CCN(CC(=O)O)CCN(CC(=O)NCCCS(=O)(=O)c2ccc(-c3ccc4nccc(C(=O)NCC(=O)N5CCC[C@H]5C(=O)c5nc6ccccc6o5)c4c3)cc2)CCN(CC(=O)O)CC1 [Compound 3BP-3581, (S)-2,2′,2″-(10-(2-(3-(4-(4-(2-(2-(benzo[d]oxazole-2-carbonyl)pyrrolidin-1-yl)-2-oxoethylcarbamoyl)quinolin-6-yl)phenylsulfonyl)propylamino)-2-oxoethyl)-1,4,7,10-tetraazacyclododecane-1,4,7-triyl)triacetic Acid]?
**A.** HL (half-life) [1]: 5.75 ± 3.63 h; Kd [1]: 0.0794 nM; IC50 [3]: 1.58 nM; IC50 (HT-29 cells; 10 μM compound, 24 hours at 37° C. with HT-29 cells, supernatant tested on recombinant human FAP, read-out: pIC50 (incubation in the presence of HT-29 cells) (converted)): 2 nM; IC50 (HT-29 cells; HT-29, 10 μM compound, 24 hours at 37° C. in control wells without cells, supernatant tested on recombinant human FAP, read-out: pIC50 (incubation in cell medium w/o HT-29) (converted)): 2 nM; Residual activity after incubation with HT-29 cells for 24 hours (%) (HT-29 cells; HT-29 cells, 24 hours): >95%; HL [min] (Biacore) (Human recombinant FAP [2]): 120 min; Kd (Human recombinant FAP [2]; SPR, read-out: pKD (Biacore) (converted)): < 0.0316 nM; IC50 (Human recombinant FAP [4]): 1.26 nM
